Here are results for ten compounds from patent US11298569B2 (priority 2016, dated 2022).

Read-outs that look alike come from different tables or passages of the source.

The target in data set [1] is T1, Panx1 (Mus musculus, UniProt Q9JIP4).
T1 construct: endogenous in cells; host or cells: BV-2 microglia
The format is cell-based. The note with it: for BzATP-evoked YO-PRO-1 uptake: morphine-treated microglia, BzATP 150 μM, drug 10 μM; for naloxone potentiation of Panx1 activation (YO-PRO-3 dye uptake): morphine-treated BV-2 microglial cultures, 30 minutes post-BzATP. Here is the method: (§1) BV2 microglia were maintained in DMEM media (Gibco) containing 10% FBS and 1% Pen-Strep at 37° C. with 5% CO2.
Following a 5-min baseline recording, cells were stimulated with BzATP (150 μM, Sigma) and dye-uptake was recorded for 30 minutes. Cell viability was assessed immediately after 30 minute recording by application of ionomycin (1 μM, Sigma). YO-PRO-1 dye fluorescent emission (491/509) or YO-PRO-3 dye fluorescent emission (612/631) was detected at 37° C. using a FilterMax F5 plate reader (Molecular Devices). Drugs used include ^10panx, ^scrpanx, and naloxone, all of which were used at 10 μM. Drugs were bath applied in YO-PRO-1 dye and incubated at 37° C. for 10 minutes prior to baseline recording. Fluorescent emission at 30 minutes post BzATP application was calculated as percent change from baseline. Representative images of BV-2 YO-PRO-1 dye uptake were taken at room temperature using an inverted microscope (Nikon Eclipse Ti C1S1 Spectral Confocal) with images take at 5 minute intervals for 30 minutes using EasyRatioPro software (PTI). To assess Panx1 function in Cx3cr1::Panx1^flx/flx adult microglia, neuron-glia mixture culture was isolated from adult mice treated with tamoxifen or vehicle for 5 days, then plated in DMEM containing 10% FBS and 1% Pen-Strep and incubated overnight at 37° C. with 5% CO2. Cells were washed and incubated with DAPI (1:10,000) for 10 minutes, and then incubated in YO-PRO-3 dye. Microglia were identified from mixed adult neuronal-glia culture by endogenous expression of eYFP. Fluorescence of individual eYFP positive microglia was recorded for a 5 minute baseline period and then for 30 minutes post BzATP stimulation (300 μM). Fluorescent emission at 30 minutes was calculated and as percent change from baseline.

Data set [2] has as its target T1, Panx1. The format is cell-based. The note with it: for ATP release: morphine-treated cultured microglia stimulated with naloxone. Here is the method: as §1
ATP level were detected using bioluminescence by combining samples with recombinant firefly luciferase and its substrate D-luciferin (ATP Determination Kit, Life Technologies). The ATPase inhibitor (ARL67156, 1 μM, Sigma) was added to the ECS or ACSF to decrease breakdown of ATP, and samples were incubated in medium for 30 minutes prior to naloxone stimulation to reduce mechanically-induced ATP release. Samples were stimulated with naloxone (10 μM) for 30 minutes, at which point the supernatant was collected. Samples were read immediately after collection using a FilterMax F5 plate reader at 28° C. For experiments for BV-2 microglial cultures, cells were incubated in ^10panx (10 μM), ^scrpanx (10 μM), probenecid (1 mM), mefloquine (40 μM) or ECS for 10 minutes prior to naloxone stimulation. Final ATP measurement was expressed relative to control samples (saline treated and ECS stimulated) from the same plate. For ATP release in spinal cord slices, tamoxifen or vehicle treated Cx3cr1::Panx1^flx/flx mice were perfused with ice-cold oxygenated sucrose-substituted ACSF, and the spinal cord isolated by hydraulic extrusion. The lumbar segment of the spinal cord was sliced into 300 μm sections, and incubated in oxygenated 37° C. ACSF for 1 hour. Spinal cord slices were then transferred to room temperature oxygenated ACSF and stimulated with naloxone. For quantification, ATP release was normalized to total protein of each sample.

Another data set deals with morphine-dependent rats. The data set is described as follows: Naloxone-precipitated morphine withdrawal behaviours in rats. The note with it: for morphine withdrawal: morphine-dependent rats. The format is in vivo, rat. Here is the method: (§2) Control rats and mice received saline and were challenged with naloxone on day 5. […] Jumping, teeth chattering, wet-dog shakes, headshakes, and grooming behaviors were evaluated at 5-min intervals for a total test period of 30 minutes and a standardized score of 0 to 3 was assigned to each behavior. Allodynia, piloerection, salivation, ejaculation, and tremorsitwitchina were also evaluated, with one point given to the presence of the behavior during each 5-min interval. All signs were counted and compiled to yield a cumulative withdrawal score. Rats and mice were weighed before and after naloxone challenge to calculate weight loss. In all behavioral studies, experimenters were blind to the drug treatments and genetic profile of rats and mice.
(§3) All control animals received intrathecal saline.
Both mefloquine and probenecid were reconstituted in β-cyclodextrin (Sigma), and control animals received systemic β-cyclodextrin.

The subject of data set [3] is Cx3cr1-cre::Panx1^flx/flx mice. The data set is described as follows: Naloxone-precipitated morphine withdrawal behaviours in mice. The format is in vivo, mouse. The note with it: for morphine withdrawal: morphine-dependent Panx1-expressing mice, 15 minutes prior to naloxone. Here is the method: as §2, §3
In data set [4] the test system is CD11b-positive cells in the lumbar spinal cords. The note with it: mouse.
Experimental: Mice with microglial specific deletion of Panx1 were generated using a Cre-loxP system. […] Progeny genotype was screened using PCR, and homozygous Panx1^flx/flx and Cx3cr1-cre mice were bred and backcrossed for 8 generations to yield the conditional Cx3cr1::Panx1^flx/flx knock-out mice. To induce Cre recombination, mice were injected intraperitoneally with 1 mg per day tamoxifen (Sigma) for 5 days. Wild-type mice were littermate mice that received vehicle injections (sunflower oil with 10% ethanol) for 5 days, while tamoxifen-related effects were controlled for using Panx1^flx/flx littermate mice that received 5 days of tamoxifen injections.
In data set [5] the test system is Panx1. The data set is described as follows: Western blot of total Panx1 protein in rat primary microglia cultures. The format is cell-based. The note with it: morphine for 5-days. The protocol:
(§4) Rat spinal cord tissue was rapidly dissected and homogenized in RIPA buffer containing 20 mM TrisHCl (pH 7.5), 150 mM NaCl, and 0.5% Tween-20. Cultured microglia were harvested in 150 μL lysis buffer containing 50 mM TrisHCl, 150 mM NaCl, 10 mM EDTA, 0.1% Triton-X, and 5% Glycerol. Both RIPA and lysis buffers contained protease inhibitors (Sigma) and phosphatase inhibitors (GBiosciences). Total protein was measured using a BioRad RC DC Protein Assay Kit (BioRad) or Pierce BCA Protein Assay Kit (Thermo Scientific). Samples were heated at 95° C. for 5-min in loading buffer (350 mM Tris, 30% glycerol, 1.6% SDS, 1.2% bromophenol blue, 6% β-mercaptoethanol) then electrophoresed on a precast SDS gel (4-12% Tris-HCl, BioRad) and transferred onto a nitrocellulose membrane. […] Membranes were washed and incubated for 2 h at 20-25° C. in fluorophore-conjugated secondary antibodies (anti-rabbit and anti-mouse conjugated IR Dyes 1:5000, Mandel Scientific; or Fluorescent TrueBlot anti-rabbit IgG Dylight 1:1000, Rockland) then quantified by direct detection of secondary antibody fluorescence at 680 and 800 nm (LICOR Odyssey CLx). Band intensity was quantified using Image J, normalized to β-actin and expressed relative to control samples. […]
For orientation: Immunoblotting shows a protein as a band on a membrane.

Data set [6] deals with Panx1. As to the kind of experiment: Western blot of total Panx1 protein in BV-2 microglial cell line. The format is cell-based. The note with it: morphine for 5-days. The protocol:
as §4

T1 sequence (Q9JIP4 whole entry): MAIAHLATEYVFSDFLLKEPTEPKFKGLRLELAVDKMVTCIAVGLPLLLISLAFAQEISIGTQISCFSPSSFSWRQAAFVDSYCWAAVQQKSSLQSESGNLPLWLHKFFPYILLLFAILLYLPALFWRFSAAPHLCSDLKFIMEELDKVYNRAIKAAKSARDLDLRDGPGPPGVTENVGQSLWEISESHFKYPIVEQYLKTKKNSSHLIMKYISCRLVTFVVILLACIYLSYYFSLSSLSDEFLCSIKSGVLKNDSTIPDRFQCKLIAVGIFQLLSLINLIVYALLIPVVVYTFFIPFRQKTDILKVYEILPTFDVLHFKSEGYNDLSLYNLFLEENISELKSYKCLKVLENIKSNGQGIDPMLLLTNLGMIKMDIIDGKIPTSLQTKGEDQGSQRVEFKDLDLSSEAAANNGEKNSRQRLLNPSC

Regarding FSVYWAQADR (scrPanx) [^scrpanx], the “BzATP-evoked YO-PRO-1 uptake” value with Panx1 [1] is recorded as “unaffected”.

For `OC(c1cc(C(F)(F)F)nc2c(C(F)(F)F)cccc12)C1CCCCN1` (stereo not shown) [mefloquine], on Panx1 [2] (mefloquine 40 μM), the ATP release result is on record as “suppressed”. Also, the “naloxone potentiation of Panx1 activation (YO-PRO-3 dye uptake)” value at Panx1 [1] is “blocked”. Moreover, the morphine withdrawal result in the data set on morphine-dependent rats (systemic 45 mg/kg i.p. 1-hour prior to naloxone challenge) is “significantly ameliorated”.

As to `CCN(CC)c1ncnc2c1ncn2[C@@H]1O[C@H](COP(=O)(O)OP(=O)(O)C(Br)(Br)P(=O)(O)O)[C@@H](O)[C@H]1O` [ARL67156], the morphine withdrawal entry in data set [3] (intrathecal 10 nmoles) is “exacerbated”.

For the compound `Nc1ncnc2c1ncn2[C@@H]1O[C@H](COP(=O)(O)OP(=O)(O)OP(O)(O)=S)[C@@H](O)[C@H]1O` [ATPγS], the withdrawal behaviors entry in data set [3] (morphine-treated Panx1-deficient mice, intrathecal 100 μM together with naloxone challenge) is listed as “restored a spectrum of withdrawal behaviors”; in data set [3] (saline-treated Panx1-deficient mice, intrathecal 100 μM), “not observed”.

Turning to WRQAAFVDSY (10panx) [^10panx], in the data set with Panx1 [2] (cultured microglia, ^10panx 10 μM for 10 minutes prior to naloxone), the “naloxone-evoked release of ATP” value is “blocked”. The “BzATP-evoked YO-PRO-1 uptake” value with Panx1 [1] was “blocked”. Also, the withdrawal behaviours result in the data set with morphine-dependent rats (rats after 5-days of morphine, intrathecal 10 μg, 60-minutes prior to naloxone challenge) was “significantly attenuated”. Also, the naloxone-precipitated morphine withdrawal result is “significantly attenuated” in data set [3] (Panx1-expressing mice, intrathecal 10 μg before naloxone challenge) and “did not further reduce withdrawal” in data set [3] (mice lacking microglial Panx1, intrathecal 10 μg).

`CC/C(=C(\c1ccccc1)c1ccc(OCCN(C)C)cc1)c1ccccc1` [tamoxifen]: in data set [4], the “recombination in Cre^ER reporter eYFP / CD11b-positive cells” value turned out to be 95±3.1%. The morphine withdrawal responses entry in data set [3] (tamoxifen given to Panx1^loxp/loxp mice without inducible Cre-recombinase) is given as “does not affect morphine withdrawal”.

With `C=CCN1CC[C@]23c4c5ccc(O)c4O[C@H]2C(=O)CC[C@@]3(O)[C@H]1C5` [naloxone], the “ATP in microglial supernatant” value on Panx1 [2] (naloxone applied to microglia in culture (10 μM, 30 minutes)) was “evoked the release of ATP”. Further, the “BzATP-evoked YO-PRO-1 uptake” value at Panx1 [1] is given as “further potentiated”.

On to apyrase, for which, in data set [3] (intrathecal 10 units), the morphine withdrawal result is recorded as “striking reduction in withdrawal”.

As to `CN1CC[C@]23c4c5ccc(O)c4O[C@H]2[C@@H](O)C=C[C@H]3[C@H]1C5` [morphine], the “total Panx1 protein levels” value in the data set on Panx1 [5] and with Panx1 [6] was “marked increase” each time.

Take `CCCN(CCC)S(=O)(=O)c1ccc(C(=O)O)cc1` [probenecid]: the ATP release entry on Panx1 [2] (probenecid 1 mM) is on record as “suppressed”. Also, on Panx1 [1], the “naloxone potentiation of Panx1 activation (YO-PRO-3 dye uptake)” value was “blocked”. In addition, in the data set with morphine-dependent rats (systemic 50 mg/kg i.p. 1-hour prior to naloxone challenge), the morphine withdrawal entry is “significantly ameliorated”.
